# Counter-ions that a name gives are not always drawn. Like-named read-outs stand apart in the source and are kept apart here.
# Columns and labels:
# iv Lewis lung carcinoma = experiment: iv-implanted Lewis lung carcinoma in mice; format: in vivo, mouse; details: for Increase in lifespan (ILS) / Long-Term Survivors: iv Lewis lung; for Increase in lifespan (ILS): B/ip (Days 1, 5, 9 and 13); for Long-Term Survivors: B/ip
# From the text: (§2) Tumors used in these studies P388 leukemia, L1210 leukemia and Lewis lung carcinoma--are maintained by serial transplantation in syngeneic strains of mice, DBA/2 for the leukemias and C57B1/6 for Lewis lung carcinoma. The leukemias are serially transplanted i.p. as ascites cell suspensions while the Lewis lung carcinoma is serially transplanted as a s.c. solid tumor.
# (§3) For therapeutic trials, tumors were aseptically removed from donor mice and prepared as suspensions for implantation into test animals which for each tumor are syngeneic female F1 hybrid B6D2F1 mice (C57B1/6×DBA/2). The inoculum level varies with the type of tumor: P388 leukemia is inoculated at 10^6 cells per mouse, L1210 leukemia at 10^5 or 10^6 cells per mouse, and Lewis lung carcinoma at 0.25 ml of a 10 percent (w:v) brei. […] After tumor inoculation, mice are randomized to treatment groups of 6 to 8 mice each. In each experiment, there are three groups of untreated control mice.
# (§4) Drugs are dissolved or suspended in appropriate aqueous vehicles and given i.p. or i.v. on various treatment schedules over a range of dosage levels. Animals are housed in shoebox cages and monitored daily for mortality for 30 (L1210), 45 (P388) or 60 (Lewis lung) days.
# Aqueous solubility = format: physicochemical
# ip P388 leukemia = details: mouse, in vivo, ip
# Description: Increase in lifespan (ILS) is based on median survival time of groups of 6 mice. Net tumor cell kill (NCK) is calculated from median survival time by standard methods, since survival time is a linear function of the log tumor cell burden.
# Animals were implanted ip with 10^6 cells. Increase in lifespan (ILS) is based on median survival time of groups of 6 mice relative to untreated controls. Long-term survivors were tumor-free on Day 45.
# (§5) Tumors used in these studies--P388 leukemia and its doxorbicin--and mitoxanrone-resistant sublines, L1210 leukemia, B16 melanoma, B16 melanoma/F10 subline, M5076 sarcoma and colon carcinoma 26--are maintained by serial transplantation in syngeneic strains of mice. For the leukemias, these tumors are maintained in DBA/2 mice. The M5076 sarcoma, the B16 melanoma and its F10 subline are maintained in C57B1/6 mice and the colon sarcinoma 26 is maintained in BALB/c mice. The leukemias and the M5076 sarcoma are serially transplanted i.p. as ascites cell suspensions while the B16 melanoma lines and the colon carcinoma 26 are serially transplanted as s.c. solid tumors.
# (§6) For therapeutic trials, tumors are aseptically removed from donor mice and prepared as suspensions for implantation ip into test animals. The test animals for the colon carcinoma 26 are female BALB/c mice (20-25 gm). The test animals for the other tumor models are syngeneic female F1 hybrid B6D2F1 mice (C57B1/6 x DBA/2). The inoculum level varies with the type of tumor: P388 leukemia is inoculated at 10^6 cells per mouse, L1210 leukemia at 10^5 or 10^6 cells per mouse, M5076 sarcoma at 5×10^6 cells per mouse. For implantation of the B16 melanoma lines and the colon carcinoma 26, s.c. tumors from donor mice are minced and homogenized in loose fitting teflon glass homogenizer to give a tumor brei. The inoculum levels are 0.5 ml of a 10 percent (w:v) brei of the B16 melanoma lines and 0.5 ml of a 5 percent (w:v) brei of colon carcinoma 26. After tumor inoculation, mice randomized to treatment groups comprised of 6-8 mice each. In each experiment, there are three groups of untreated control mice. Drugs are dissolved or suspended in appropriate aqueous vehicles and given by a variety of routes and schedules of administration over a range of dose levels. Animals are housed in shoebox cages and are monitored daily for mortality for 30 (L1210), 45 (P388) or 60 (B16, M5076, colon 26) days.
# sc ADJ-PC6 plasmacytoma = experiment: sc-implanted ADJ-PC6 plasmacytoma in mice; format: in vivo, mouse; details: for Mice without Palpable Tumors: sc ADJ-PC6, B/ip
# Description: Inhibition of tumor growth (TGI) is based on mean tumor volume of groups of 7 or 8 mice relative to untreated controls. Tumors were measured between Days 12 and 19 (except Day 24 for Colon 51 and Day 31 for Colon 38).
# Tumors used in these studies are maintained by serial transplantation in syngeneic strains of mice C57BL/6 for Lewis lung carcinoma, B16 melanoma and its F10 subline, M5076 sarcoma and colon adenocarcinoma 38; BALB/c for colon carcinoma 26, ADJ-PC6 plasmacytoma Madison lung carcinoma and colon adenocarcinoma 51, C3H for mammary adenocarcinoma 16/c. With the exception of the M5076 sarcoma, which is maintained as a i.p ascites cell suspension, all of the tumors were serially transplanted as s.c. solid tumors.
# For therapeutic trials, tumors were aseptically removed from donor mice and prepared for implantation s.c. into test animals. The test animals for Lewis lung carcinoma, B16 melanoma and its F10 subline, M5076 sarcoma and colon adenocarcinoma 38 are syngeneic female F1 hybrid B6D2F mice (C57B1/6×DBA/2). ADJ-PC6 plasmacytoma and colon carcinoma 26 are evaluated in female BALB/c mice. Madison lung carcinoma and colon adenocarcinoma 51 are evaluated in syngeneic female F1 hybrid CD2F1 mice (BALB/c×DBA/2). Mammary adenocarcinoma 16/c is evaluated in female C3H mice. The inoculum varies with the tumor. Colon adenocarcinomas 38 is implanted as 2 mm fragments by trochar. M5076 sarcoma and ADJ-PC6 plasmacytoma are implanted as cell suspensions at 5×10^6 and 2×10^6 cells per mouse, respectively. Colon carcinoma 26, colon adenocarcinoma 51, Lewis lung carcinoma, Madison lung carcinoma and B16 melanoma and its F10 subline are implanted as tumor breis prepared as described above in a volume of 0.5 ml. The brei concentration was 10 percent (w:v) except for colon carcinoma 26 for which the brei concentration was 5 percent (w:v). After tumor inoculation, mice are randomized to treatment groups of 7 or 8 mice. In each experiment, there are three groups of untreated control mice.
# Drugs are dissolved or suspended in appropriate aqueous vehicles and given by a variety of routes of administration and treatment schedules over a range of dosage levels. Animals are housed in shoebox cages and are monitored daily for mortality. […] Time for tumor measurement is dependent on the different rates of tumor growth of the different tumors: the most rapidly growing tumors such as the Lewis and Madison lung tumors, B16 melanoma and its F10 subline were measured between Days 12 and 16. The slower growing tumors were measured at later time points--17 days for M5076 sarcoma, 16 or 19 days for mammary adenocarcinoma 16/c, 19 days for ADJ-PC6 plasmacytoma and colon carcinoma 26, 24 days for colon adenocarcinoma 51, and 31 days for colon adenocarcinoma 38.
# in vivo [1] = details: mouse, ip
# Description: For in vivo studies L1210 cells were implanted i.p. (10^6 per mouse)
# and drugs were administered i.p. on Days 1 and 5. Increase in lifespan
# (ILS) was based on median survival time of groups of 6 mice treated at th
# maximally tolerated dose of the drugs.
# iv L1210 leukemia = details: mouse, in vivo
# From the text: Animals were inoculated iv with 10^6 cells. Increase in lifespan (ILS) is based on median survival time of groups of 6 mice relative to untreated controls.
# The protocols utilized for the evaluation of the antitumor activity of Formula (I) compounds are well established and widely utilized by those skilled in the art of assessing the activity of drugs in preclinical tumor models. These studies generally follow the protocols established by the National Cancer Institute as described by Geran et al., Cancer Chemotherapy Reports, Part 3, Vol. 3, 1-103, 1972.
# as §2, §3, §4
# SW-620 = experiment: Cytotoxicity to tumor cells in culture; format: cell-based; details: Homo sapiens
# Description: (§1) The cell lines are used and maintained as monolayer cultures in Minimal Essential Media (Grand Island Biological Co., Grand Island, N.Y.) supplemented with 10% fetal calf serum in a 5% CO2 humidified incubator at 37° C. Various concentrations of a Formula (I) compound under sterile conditions were allowed to react for 2 hours followed by aspiration of medium or were exposed continuously. Plates are incubated for 7 days at 37° C. in a CO2 incubator. Medium was aspirated and cells were fixed and stained with ethanol and Geisma stain. The surviving cell population was determined by scanning the plates with an image analyzer. The percent inhibition of proliferation was determined relative to cells incubated in the absence of drug and the 50 percent inhibitory concentration (IC50) was determined by interpolation.
# WIDR = experiment: Cytotoxicity to tumor cells in culture; format: cell-based; details: Homo sapiens
# Description: as §1
# in vivo [2] = details: mouse, ip; remark: listed apart in the source
# From the text: as §5, §6
# [3] = tested on: sc B16 melanoma/F10 subline; experiment: sc-implanted B16 melanoma/F10 subline in mice; format: in vivo, mouse; details: for Tumor growth inhibition (TGI) / Mice without Palpable Tumors: sc B16/F10
# From the text: The inoculum varies with the tumor.
# [4] = 2 hr exposure, 7-day incubation, read-out: IC50 2 Hr. Exposure
# [5] = 168 h, continuous 7-day exposure, read-out: IC50 Continuous Exposure
smiles,measurement,setting,value
"CC[C@@]1(O)C(=O)OCc2c1cc1n(c2=O)Cc2cc3c(CN(C)C)c(O)ccc3nc2-1 [Compound No. 1S, (20 S) 9-Dimethylaminomethyl-10-hydroxycamptothecin Acetate Salt]",Increase in Lifespan (ILS) or Inhibition of Tumor Growth (TGI),"iv Lewis lung carcinoma; iv Lewis Lung Carcinoma, optimal doses and optimal schedules, Acetate Salt",Curative
same,Increase in lifespan (ILS),iv Lewis lung carcinoma; 3.2 mg/kg/injection,16%
same,Increase in lifespan (ILS),iv Lewis lung carcinoma; 5.4 mg/kg/injection,37%
same,Increase in lifespan (ILS),iv Lewis lung carcinoma; 15 mg/kg/injection,> 200%
same,Increase in lifespan (ILS),iv Lewis lung carcinoma; 25 mg/kg/injection,toxic
same,Long-Term Survivors,iv Lewis lung carcinoma; 9 mg/kg/injection,1/7
same,Long-Term Survivors,iv Lewis lung carcinoma; 15 mg/kg/injection,7/7
same,solubility in water / aqueous vehicles,Aqueous solubility,water-soluble
same,Increase in Lifespan (ILS) or Inhibition of Tumor Growth (TGI),ip P388 leukemia,Curative
same,long term survivors,ip P388 leukemia,2/6
same,Long-Term Survivors,ip P388 leukemia; 15 mg/kg,4/6
same,Increase in lifespan (ILS),ip P388 leukemia; 30 mg/kg,toxic
same,inhibition of tumor growth at four dose levels at or below the maximally tolerated dose,"sc ADJ-PC6 plasmacytoma; mouse, in vivo",> 90
same,long term tumor-free survivors at each of the top three dose levels,"sc ADJ-PC6 plasmacytoma; mouse, in vivo",1 of 8
same,Tumor growth inhibition (TGI),"sc ADJ-PC6 plasmacytoma; mouse, in vivo, 3.2 mg/kg",93%
same,Tumor growth inhibition (TGI),"sc ADJ-PC6 plasmacytoma; mouse, in vivo, 5.4 mg/kg",92%
same,"long-term, tumorfree survivors","sc ADJ-PC6 plasmacytoma; mouse, in vivo, 5.4 mg/kg",1/8
same,Tumor growth inhibition (TGI),"sc ADJ-PC6 plasmacytoma; mouse, in vivo, 9 mg/kg",100%
same,"long-term, tumorfree survivors","sc ADJ-PC6 plasmacytoma; mouse, in vivo, 9 mg/kg",1/8
same,"long-term, tumorfree survivors","sc ADJ-PC6 plasmacytoma; mouse, in vivo, 15 mg/kg",1/8
same,Tumor growth inhibition (TGI),"sc ADJ-PC6 plasmacytoma; mouse, in vivo, 25 mg/kg",toxic
same,Increase in Lifespan (ILS) or Inhibition of Tumor Growth (TGI),"sc ADJ-PC6 plasmacytoma; mouse, in vivo, sc",100 % TGI
same,Mice without Palpable Tumors,sc ADJ-PC6 plasmacytoma; 3.2 mg/kg/injection,3/8
same,Mice without Palpable Tumors,sc ADJ-PC6 plasmacytoma; 5.4 mg/kg/injection,4/8
same,Mice without Palpable Tumors,sc ADJ-PC6 plasmacytoma; 9 mg/kg/injection,8/8
same,Mice without Palpable Tumors,sc ADJ-PC6 plasmacytoma; 15 mg/kg/injection,7/7
same,MTD,in vivo [1],15 mg/kg
same,ILS,iv L1210 leukemia; 3.2 mg/kg,50%
same,Increase in lifespan (ILS),iv L1210 leukemia; 3.2 mg/kg,57%
same,ILS,iv L1210 leukemia; 5.4 mg/kg,67%
same,Increase in lifespan (ILS),iv L1210 leukemia; 5.4 mg/kg,93%
same,ILS,iv L1210 leukemia; 9 mg/kg,83%
same,Increase in lifespan (ILS),iv L1210 leukemia; 9 mg/kg,136%
same,Increase in lifespan (ILS),iv L1210 leukemia; 15 mg/kg,171%
same,Long-Term Survivors,iv L1210 leukemia; 15 mg/kg,1/6
same,ILS,iv L1210 leukemia; 25 mg/kg,toxic
same,Increase in lifespan (ILS),iv L1210 leukemia; 25 mg/kg,toxic
same,Increase in Lifespan (ILS) or Inhibition of Tumor Growth (TGI),iv L1210 leukemia; iv,Curative
same,Long-Term Survivors,"iv L1210 leukemia; iv, 1.3 mg/kg",2/7
same,Long-Term Survivors,"iv L1210 leukemia; iv, 2.2 mg/kg",1/7
same,Long-Term Survivors,"iv L1210 leukemia; iv, 3.6 mg/kg",5/7
same,Long-Term Survivors,"iv L1210 leukemia; iv, 24 mg/kg",4/7
same,IC50,SW-620; [4],0.12 µg/mL
same,IC50,SW-620; [5],0.0065 µg/mL
same,IC50,WIDR; [4],2.1 µg/mL
same,IC50,WIDR; [5],0.025 µg/mL
same,MTD,in vivo [2],15 mg/kg
same,Increase in Lifespan (ILS) or Inhibition of Tumor Growth (TGI),"[3]; mouse, in vivo, sc",100 % TGI
same,Tumor growth inhibition (TGI),"[3]; B/ip (Days 1, 5, 9 and 13), 3.2 mg/kg/injection",52%
same,Tumor growth inhibition (TGI),"[3]; B/ip (Days 1, 5, 9 and 13), 5.4 mg/kg/injection",62%
same,Tumor growth inhibition (TGI),"[3]; B/ip (Days 1, 5, 9 and 13), 9 mg/kg/injection",57%
same,Tumor growth inhibition (TGI),"[3]; B/ip (Days 1, 5, 9 and 13), 15 mg/kg/injection",87%
same,Tumor growth inhibition (TGI),"[3]; B/ip (Days 1, 5, 9 and 13), 25 mg/kg/injection",100%
same,Mice without Palpable Tumors,"[3]; B/ip, 25 mg/kg/injection",7/8
same,Tumor growth inhibition (TGI),"[3]; F/iv (Days 1, 5 and 9), 3.2 mg/kg/injection",22%
same,Tumor growth inhibition (TGI),"[3]; F/iv (Days 1, 5 and 9), 5.4 mg/kg/injection",34%
same,Tumor growth inhibition (TGI),"[3]; F/iv (Days 1, 5 and 9), 9 mg/kg/injection",60%
same,Tumor growth inhibition (TGI),"[3]; F/iv (Days 1, 5 and 9), 15 mg/kg/injection",97%
same,Tumor growth inhibition (TGI),"[3]; F/iv (Days 1, 5 and 9), 25 mg/kg/injection",97%
same,Mice without Palpable Tumors,"[3]; F/iv, 3.2 mg/kg/injection",1/8
same,Mice without Palpable Tumors,"[3]; F/iv, 5.4 mg/kg/injection",1/8
same,Mice without Palpable Tumors,"[3]; F/iv, 9 mg/kg/injection",2/8
same,Mice without Palpable Tumors,"[3]; F/iv, 15 mg/kg/injection",7/8

# Reference: patent US5004758A, “Water soluble camptothecin analogs useful for inhibiting the growth of animal tumor cells” (priority 1988, dated 1991)
